Experimental data reported in patent US9365576B2, “Pyrrolopyrrolidinone compounds” (Novartis AG, priority 2012, dated 2016).

molecular target: human MDM2 protein (amino acids 2-188) (Homo sapiens (Human), UniProt Q00987); assay: TR-FRET assay, p53-MDM2 Assay 2 (modified); assay type: binding; details: not given
How it was run: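 Biotinylated human MDM2 (aa 2–188, 1.25 nM) was preincubated 15 min at room temperature with 0.625 nM Eu-streptavidin, then 10 nM Cy5-p53 peptide (aa 18–26) added for 15 min. TR-FRET ratio 665/620 nm (excitation 340 nm) was read; IC50 came from curve fitting.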

Sequence of human MDM2 protein (amino acids 2-188) (Q00987 2-188): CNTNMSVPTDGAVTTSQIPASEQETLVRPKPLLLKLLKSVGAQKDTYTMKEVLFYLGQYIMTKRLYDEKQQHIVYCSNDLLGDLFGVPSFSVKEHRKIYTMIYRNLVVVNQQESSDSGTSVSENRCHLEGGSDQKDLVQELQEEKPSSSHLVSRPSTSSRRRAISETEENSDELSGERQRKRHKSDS

| IC50 | SMILES |
| --- | --- |
| 0.49 nM | COc1ncccc1-c1cc2c(n1C(C)C)C(c1ccc(Cl)cc1)N(c1cc(Cl)ccc1C)C2=O (centres unmarked) [Example 12, 5-(5-Chloro-2-methyl-phenyl)-6-(4-chloro-phenyl)-1-isopropyl-2-(2-methoxy-pyridin-3-yl)-5,6-dihydro-1H-pyrrolo[3,4-b]pyrrol-4-one] |

same assay, conditions: TR-FRET; 0.1 nM MDM2, 0.1 nM Europium labeled streptavidin, Tecan genios Pro reader; read-out: IC50 p53-MDM2 Assay 2

| IC50 | SMILES |
| --- | --- |
| 0.741 nM | COc1ncc(-c2cc3c(n2C(C)C)C(c2ccc(Cl)cc2)N(C2CN(C)C(=O)N(C)C2)C3=O)c(OC)n1 (centres unmarked) [Example 110, 6-(4-Chloro-phenyl)-2-(2,4-dimethoxy-pyrimidin-5-yl)-5-(1,3-dimethyl-2-oxo-hexahydro-pyrimidin-5-yl)-1-isopropyl-5,6-dihydro-1H-pyrrolo[3,4-b]pyrrol-4-one] |
| 0.187 nM | CNC(=O)c1ccc(OC)c(-c2cc3c(n2C(C)C)C(c2ccc(Cl)cc2C)N(c2cc(Cl)c(=O)n(C)c2)C3=O)c1 (centres unmarked) [Example 145, 3-[5-(5-Chloro-1-methyl-6-oxo-1,6-dihydro-pyridin-3-yl)-6-(4-chloro-2-methyl-phenyl)-1-isopropyl-4-oxo-1,4,5,6-tetrahydro-pyrrolo[3,4-b]pyrrol-2-yl]-4-methoxy-N-methyl-benzamide] |
| 0.106 nM | COc1nc(N(C)C)ncc1-c1cc2c(n1C(C)C)C(c1ccc(Cl)cc1)N(c1cc(Cl)c[nH]c1=O)C2=O (centres unmarked) [Example 123, 5-(5-Chloro-2-oxo-1,2-dihydro-pyridin-3-yl)-6-(4-chloro-phenyl)-2-(2-dimethylamino-4-methoxy-pyrimidin-5-yl)-1-isopropyl-5,6-dihydro-1H-pyrrolo[3,4-b]pyrrol-4-one] |
| 0.444 nM | COc1ccc(-c2cc3c(n2C(C)C)C(c2ccc(Cl)cc2)N(c2cc(Cl)ccc2C)C3=O)c(OC)c1 (centres unmarked) [Example 38, 5-(5-Chloro-2-methyl-phenyl)-6-(4-chloro-phenyl)-2-(2,4-dimethoxy-phenyl)-1-isopropyl-5,6-dihydro-1H-pyrrolo[3,4-b]pyrrol-4-one] |
| 0.769 nM | COc1nc(N(C)C)ncc1-c1cc2c(n1C(C)C)C(c1ccc(Cl)cc1F)N(c1cc(C)nn1C)C2=O (centres unmarked) [Example 212, 6-(4-Chloro-2-fluoro-phenyl)-2-(2-dimethylamino-4-methoxy-pyrimidin-5-yl)-5-(2,5-dimethyl-2H-pyrazol-3-yl)-1-isopropyl-5,6-dihydro-1H-pyrrolo[3,4-b]pyrrol-4-one] |
| 0.152 nM | COc1ccc(CC(=O)N(C)C)cc1-c1cc2c(n1C(C)C)C(c1ccc(Cl)cc1)N(c1cc(Cl)ccc1C)C2=O (centres unmarked) [Example 82, 2-{3-[5-(5-Chloro-2-methyl-phenyl)-6-(4-chloro-phenyl)-1-isopropyl-4-oxo-1,4,5,6-tetrahydro-pyrrolo[3,4-b]pyrrol-2-yl]-4-methoxy-phenyl}-N,N-dimethyl-acetamide] |
| 0.252 nM | COc1ncc(-c2cc3c(n2C(C)C)C(c2ccc(C#N)c(F)c2)N(c2cc(Cl)c(=O)n(C)c2)C3=O)c(OC)n1 (centres unmarked) [Example 195, 4-[5-(5-Chloro-1-methyl-6-oxo-1,6-dihydro-pyridin-3-yl)-2-(2,4-dimethoxy-pyrimidin-5-yl)-1-isopropyl-4-oxo-1,4,5,6-tetrahydro-pyrrolo[3,4-b]pyrrol-6-yl]-2-fluoro-benzonitrile] |
| 0.334 nM | CNC(=O)Cc1cc(-c2cc3c(n2C(C)C)C(c2ccc(C#N)cc2)N(c2cccc(Cl)c2F)C3=O)c(OC)cn1 (centres unmarked) [Example 86, 2-{4-[5-(3-Chloro-2-fluoro-phenyl)-6-(4-cyano-phenyl)-1-isopropyl-4-oxo-1,4,5,6-tetrahydro-pyrrolo[3,4-b]pyrrol-2-yl]-5-methoxy-pyridin-2-yl}-N-methyl-acetamide] |
| 0.427 nM | COc1ncc(-c2cc3c(n2C(C)C)C(c2ccc(C#N)cc2)N(c2c[nH]c(=O)c(Cl)c2)C3=O)c(OC)n1 (centres unmarked) [Example 135, 4-[5-(5-Chloro-6-oxo-1,6-dihydro-pyridin-3-yl)-2-(2,4-dimethoxy-pyrimidin-5-yl)-1-isopropyl-4-oxo-1,4,5,6-tetrahydro-pyrrolo[3,4-b]pyrrol-6-yl]-benzonitrile] |
| 0.148 nM | CNC(=O)Cc1ccc(OC)c(-c2cc3c(n2C(C)C)C(c2ccc(Cl)cc2)N(c2cc(Cl)ccc2C)C3=O)c1 (centres unmarked) [Example 81, 2-{3-[5-(5-Chloro-2-methyl-phenyl)-6-(4-chloro-phenyl)-1-isopropyl-4-oxo-1,4,5,6-tetrahydro-pyrrolo[3,4-b]pyrrol-2-yl]-4-methoxy-phenyl}-N-methyl-acetamide] |
| 0.351 nM | COc1ccc(C(=O)O)cc1-c1cc2c(n1C(C)C)C(c1ccc(Cl)cc1)N(c1ccc(F)c(Cl)c1)C2=O (centres unmarked) [Example 56, 3-[5-(3-Chloro-4-fluoro-phenyl)-6-(4-chloro-phenyl)-1-isopropyl-4-oxo-1,4,5,6-tetrahydro-pyrrolo[3,4-b]pyrrol-2-yl]-4-methoxy-benzoic acid] |
| 0.316 nM | COc1ncc(-c2cc3c(n2C(C)C)C(c2ccc(Cl)cc2)N(c2cc(Cl)ccc2C#N)C3=O)c(OC)n1 (centres unmarked) [Example 98, 4-Chloro-2-[6-(4-chloro-phenyl)-2-(2,4-dimethoxy-pyrimidin-5-yl)-1-isopropyl-4-oxo-4,6-dihydro-1H-pyrrolo[3,4-b]pyrrol-5-yl]-benzonitrile] |
| 280 nM | COc1nc(N(C)C)ncc1-c1cc2c(n1C(C)C)[C@@H](c1ccc(C#N)cc1)N(C1CCOCC1)C2=O [Example 191, 4-[(R)-2-(2-Dimethylamino-4-methoxy-pyrimidin-5-yl)-1-isopropyl-4-oxo-5-(tetrahydro-pyran-4-yl)-1,4,5,6-tetrahydro-pyrrolo[3,4-b]pyrrol-6-yl]-benzonitrile] |
| 1.34 nM | COc1nc(N(C)C)ncc1-c1cc2c(n1C(C)C)C(c1ccc(C#N)cc1)N(C1CCOCC1)C2=O (centres unmarked) [Example 158, 4-[2-(2-Dimethylamino-4-methoxy-pyrimidin-5-yl)-1-isopropyl-4-oxo-5-(tetrahydro-pyran-4-yl)-1,4,5,6-tetrahydro-pyrrolo[3,4-b]pyrrol-6-yl]-benzonitrile] |
| 0.496 nM | COc1ccccc1-c1cc2c(n1C(C)C)C(C)(c1ccc(Cl)cc1)N(c1cc(Cl)ccc1C)C2=O (centres unmarked) [Example 116, 5-(5-Chloro-2-methyl-phenyl)-6-(4-chloro-phenyl)-1-isopropyl-2-(2-methoxy-phenyl)-6-methyl-5,6-dihydro-1H-pyrrolo[3,4-b]pyrrol-4-one] |
| 0.158 nM | COc1nc(N(C)C)ncc1-c1cc2c(n1C(C)C)C(c1ccc(Cl)cc1)N(c1c(F)c(C)nn1C)C2=O (centres unmarked) [Example 209, 6-(4-Chloro-phenyl)-2-(2-dimethylamino-4-methoxy-pyrimidin-5-yl)-5-(4-fluoro-2,5-dimethyl-2H-pyrazol-3-yl)-1-isopropyl-5,6-dihydro-1H-pyrrolo[3,4-b]pyrrol-4-one] |
| 1.15 nM | COc1ncc(-c2cc3c(n2C(C)C)C(c2ccc(C#N)cc2)N(c2cc(Cl)cn(C)c2=O)C3=O)c(OC)n1 (centres unmarked) [Example 132, 4-[5-(5-Chloro-1-methyl-2-oxo-1,2-dihydro-pyridin-3-yl)-2-(2,4-dimethoxy-pyrimidin-5-yl)-1-isopropyl-4-oxo-1,4,5,6-tetrahydro-pyrrolo[3,4-b]pyrrol-6-yl]-benzonitrile] |
| 0.37 nM | COc1ncc(-c2cc3c(n2C(C)C)C(c2ccc(C#N)c(F)c2)N(c2cc(Cl)c[nH]c2=O)C3=O)c(OC)n1 (centres unmarked) [Example 200, 4-[5-(5-Chloro-2-oxo-1,2-dihydro-pyridin-3-yl)-2-(2,4-dimethoxy-pyrimidin-5-yl)-1-isopropyl-4-oxo-1,4,5,6-tetrahydro-pyrrolo[3,4-b]pyrrol-6-yl]-2-fluoro-benzonitrile] |
| 0.195 nM | COc1ncc(-c2cc3c(n2C(C)C)C(c2ccc(Cl)cc2)N(c2cc(Cl)c[nH]c2=O)C3=O)c(OC)n1 (centres unmarked) [Example 204, 5-(5-Chloro-2-oxo-1,2-dihydro-pyridin-3-yl)-6-(4-chloro-phenyl)-2-(2,4-dimethoxy-pyrimidin-5-yl)-1-isopropyl-5,6-dihydro-1H-pyrrolo[3,4-b]pyrrol-4-one] |
| 8.13 nM | COc1ccccc1-c1cc2c(n1C(C)C)C(c1ccc(Cl)cc1)N([C@H]1CC[C@H](O)CC1)C2=O (stereo partly drawn) [Example 63, 6-(4-Chloro-phenyl)-5-(trans-4-hydroxy-cyclohexyl)-1-isopropyl-2-(2-methoxy-phenyl)-5,6-dihydro-1H-pyrrolo[3,4-b]pyrrol-4-one] |
| 2.98 nM | COc1ncncc1-c1cc2c(n1C(C)C)C(c1ccc(C#N)cc1)N(c1cc(Cl)c(=O)n(C)c1)C2=O (centres unmarked) [Example 236, 4-(5-(5-Chloro-1-methyl-6-oxo-1,6-dihydropyridin-3-yl)-1-isopropyl-2-(4-methoxypyrimidin-5-yl)-4-oxo-1,4,5,6-tetrahydropyrrolo[3,4-b]pyrrol-6-yl)benzonitrile] |
| 0.556 nM | COc1nc(N)ncc1-c1cc2c(n1C(C)C)C(c1ccc(C#N)cc1)N(c1ccc(F)c(Cl)c1)C2=O (centres unmarked) [Example 39, 4-[2-(2-Amino-4-methoxy-pyrimidin-5-yl)-5-(3-chloro-4-fluoro-phenyl)-1-isopropyl-4-oxo-1,4,5,6-tetrahydro-pyrrolo[3,4-b]pyrrol-6-yl]-benzonitrile] |
| 0.361 nM | COc1nc(N(C)C)ncc1-c1cc2c(n1C(C)C)C(c1ccc(C#N)cc1)N(c1ccc(F)c(Cl)c1)C2=O (centres unmarked) [Example 93, 4-[5-(3-Chloro-4-fluoro-phenyl)-2-(2-dimethylamino-4-methoxy-pyrimidin-5-yl)-1-isopropyl-4-oxo-1,4,5,6-tetrahydro-pyrrolo[3,4-b]pyrrol-6-yl]-benzonitrile] |
| 0.155 nM | COc1ccc(CC(=O)O)cc1-c1cc2c(n1C(C)C)C(c1ccc(Cl)cc1)N(c1cc(Cl)ccc1C)C2=O (centres unmarked) [Example 60, {3-[5-(5-Chloro-2-methyl-phenyl)-6-(4-chloro-phenyl)-1-isopropyl-4-oxo-1,4,5,6-tetrahydro-pyrrolo[3,4-b]pyrrol-2-yl]-4-methoxy-phenyl}-acetic acid] |
| 0.263 nM | COc1nc(N)ncc1-c1cc2c(n1C(C)C)C(c1ccc(Cl)cc1)N(c1cc(Cl)ccc1C)C2=O (centres unmarked) [Example 25, 2-(2-Amino-4-methoxy-pyrimidin-5-yl)-5-(5-chloro-2-methyl-phenyl)-6-(4-chloro-phenyl)-1-isopropyl-5,6-dihydro-1H-pyrrolo[3,4-b]pyrrol-4-one] |
